Source: ChEMBL document CHEMBL3638768, “(aza)indole derivative and use thereof for medical purposes” (2015)

Target: Xanthine dehydrogenase/oxidase (Bos taurus, UniProt P80457)
Assay: Inhibition Assay: Test compounds were dissolved in DMSO (Wako) at 40 mM concentration and then diluted to intended concentrations with phosphate-buffered saline (PBS). Xanthine oxidase (from bovine milk, Sigma) was prepared with phosphate-buffered saline (PBS) at 0.02 units/mL, and then the solution was added to 96 well plates at 50 μL/well. In addition, test compounds diluted with PBS were added at 50 μL/well. Xanthine (Wako) at 200 μM prepared with PBS was added at 100 μL/well, and the reaction was conducted for 10 minutes at room temperature. Absorbance at 290 nm was measured using a microplate reader SpectraMax Plus 384 (Molecular device). The absorbance under a condition without xanthine is 0%, and control without test compounds is 100%.

Sequence of Xanthine dehydrogenase/oxidase (P80457 whole entry): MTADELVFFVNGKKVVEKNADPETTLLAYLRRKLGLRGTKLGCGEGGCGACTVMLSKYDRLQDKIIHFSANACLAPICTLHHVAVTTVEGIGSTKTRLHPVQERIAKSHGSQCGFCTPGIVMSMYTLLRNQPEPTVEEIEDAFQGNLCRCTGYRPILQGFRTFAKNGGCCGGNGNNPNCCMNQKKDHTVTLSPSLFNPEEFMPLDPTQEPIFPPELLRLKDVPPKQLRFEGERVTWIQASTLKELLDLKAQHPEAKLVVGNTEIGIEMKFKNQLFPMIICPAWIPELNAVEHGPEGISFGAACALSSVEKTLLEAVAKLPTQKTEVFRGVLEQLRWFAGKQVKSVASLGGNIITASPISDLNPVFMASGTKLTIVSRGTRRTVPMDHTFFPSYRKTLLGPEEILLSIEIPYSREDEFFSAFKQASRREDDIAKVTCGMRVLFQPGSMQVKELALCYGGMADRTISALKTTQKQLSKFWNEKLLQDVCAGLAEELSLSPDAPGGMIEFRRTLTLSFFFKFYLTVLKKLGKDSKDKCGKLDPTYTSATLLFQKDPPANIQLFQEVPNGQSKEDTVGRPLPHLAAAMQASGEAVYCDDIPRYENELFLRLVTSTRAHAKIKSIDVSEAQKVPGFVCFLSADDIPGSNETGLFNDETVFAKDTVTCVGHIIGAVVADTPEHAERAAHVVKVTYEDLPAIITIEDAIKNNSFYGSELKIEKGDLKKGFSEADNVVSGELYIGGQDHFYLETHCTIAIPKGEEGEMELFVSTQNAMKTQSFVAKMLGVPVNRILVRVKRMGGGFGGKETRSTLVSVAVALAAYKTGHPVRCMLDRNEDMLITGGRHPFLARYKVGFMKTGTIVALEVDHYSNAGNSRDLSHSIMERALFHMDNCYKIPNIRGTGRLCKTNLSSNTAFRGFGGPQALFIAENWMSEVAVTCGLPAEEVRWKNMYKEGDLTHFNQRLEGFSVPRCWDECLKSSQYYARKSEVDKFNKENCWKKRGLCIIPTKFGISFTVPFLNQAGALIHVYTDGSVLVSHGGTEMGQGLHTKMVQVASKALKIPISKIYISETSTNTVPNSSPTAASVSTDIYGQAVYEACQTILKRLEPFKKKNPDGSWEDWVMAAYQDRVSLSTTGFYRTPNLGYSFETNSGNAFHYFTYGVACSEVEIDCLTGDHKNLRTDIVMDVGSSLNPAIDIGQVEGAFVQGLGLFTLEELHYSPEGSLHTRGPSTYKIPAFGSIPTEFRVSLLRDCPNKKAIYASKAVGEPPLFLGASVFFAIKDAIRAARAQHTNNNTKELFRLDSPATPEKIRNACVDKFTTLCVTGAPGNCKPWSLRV

IC50: 72.9 nM
Structure (SMILES): N#Cc1cn(-c2ccc(C(=O)O)cn2)c2ccccc12
